Molecules are shown by their SMILES. Where “and” joins values, the source holds several entries; their conditions need not be identical. Equal values may be shown once.

The values below come from patent publication US20250049748A1, “ANALOGS OF 4-BROMO-2,5-DIMETHOXYPHENETHYLAMINE” (Terran Biosciences Inc., priority 2021, published 2025).

This series can be described thus: Pharmacokinetic study in rats: plasma 2C-B after IV/PO 2C-B or PO 2C-B prodrugs. The following applies: for Tlast / AUC0-inf / AUC0-last / Cmax / T1/2 / AUC(0-t) / half-life / Tmax: analyte 2C-B in plasma; for AUC(0-t): AUC0-last.
[1] abbreviates: 2C-B dosed IV 1 mg/kg, male SD rats, individual animals, 1 mg/kg.
[2] abbreviates: 2C-B dosed oral 5 mg/kg, male SD rats, individual animals, 5 mg/kg.
The mark [3] stands for this setting: 2C-B dosed oral 10 mg/kg, male SD rats, individual animals, 10 mg/kg.
Where [4] appears, read: male, Sprague-Dawley, rat, plasma, po, 5 mg/kg, 2C-B dosed oral 5 mg/kg, male SD rats, mean.

As usually defined, the Cmax is the maximum level reached in the sampled fluid or tissue. One may read the AUC(0-t) as the area under the concentration-time curve up to a stated or last time point. The half-life is how long it takes for the measured level to halve. Usually Tmax stands for the time from dosing to the highest level. Take `COc1cc(CCN)c(OC)cc1Br` [Example 2C-B, 4-bromo-2,5-dimethoxyphenethylamine]: the Tlast was 2 h (2C-B dosed IV 1 mg/kg, male SD rats, Mean* row (median calculated for Tlast)); 2 h (2C-B dosed IV 1 mg/kg, male SD rats, individual animals); 7.00 h and 24.0 h (2×) under setting [2]; 18.3 h (2C-B dosed oral 5 mg/kg, male SD rats, mean); 7.0 h (2C-B dosed oral 10 mg/kg, male SD rats, Mean* row (median calculated for Tlast)); 2 h and 7 h (2×) under setting [3]. Further, the AUC0-inf is, setting by setting: under setting [1], 72.0 ng·h/mL and 57.8 ng·h/mL; under setting [2], 92.0 ng·h/mL and 115 ng·h/mL and 193 ng·h/mL; under setting [3], 66.8 ng·h/mL and 26.1 ng·h/mL; (male, Sprague-Dawley, rat, plasma, iv, 1 mg/kg, AUC0-inf, 2C-B dosed IV 1 mg/kg, male SD rats, individual animals) 68.6 ng·h/mL; (male, Sprague-Dawley, rat, plasma, iv, 1 mg/kg, AUC0-inf, 2C-B dosed IV 1 mg/kg, male SD rats, mean of 3 animals) 66.1 ng·h/mL; (male, Sprague-Dawley, rat, plasma, po, 5 mg/kg, AUC0-inf, 2C-B dosed oral 5 mg/kg, male SD rats, mean) 133 ng·h/mL. Where the note is “male, Sprague-Dawley, rat, plasma, po, 10 mg/kg, AUC0-inf, 2C-B dosed oral 10 mg/kg, male SD rats, mean”, the AUC0-inf was 46.5 ng·h/mL. Further, the AUC0-last reads like this: under setting [1], 71.0 ng·h/mL and 56.8 ng·h/mL; under setting [2], 69.0 ng·h/mL and 103 ng·h/mL and 159 ng·h/mL; under setting [3], 40.9 ng·h/mL and 64.3 ng·h/mL and 23.8 ng·h/mL. In addition, the peak concentration (Cmax) runs as follows: under setting [1], 85.0 ng/mL and 68.8 ng/mL; under setting [2], 29.5 ng/mL and 53.5 ng/mL; under setting [3], 29.4 ng/mL and 37.9 ng/mL and 11.3 ng/mL; (male, Sprague-Dawley, rat, plasma, iv, 1 mg/kg, Cmax, 2C-B dosed IV 1 mg/kg, male SD rats, individual animals) 72 ng/mL; (male, Sprague-Dawley, rat, plasma, iv, 1 mg/kg, Cmax, 2C-B dosed IV 1 mg/kg, male SD rats, mean of 3 animals) 75.3 ng/mL; (male, Sprague-Dawley, rat, plasma, po, 5 mg/kg, Cmax, 2C-B dosed oral 5 mg/kg, male SD rats, individual animals) 30.1 ng/mL. For the same molecule, the peak concentration (Cmax) reads like this: (male, Sprague-Dawley, rat, plasma, po, 5 mg/kg, Cmax, 2C-B dosed oral 5 mg/kg, male SD rats, mean) 37.7 ng/mL; (male, Sprague-Dawley, rat, plasma, po, 10 mg/kg, Cmax, 2C-B dosed oral 10 mg/kg, male SD rats, mean) 26.2 ng/mL. The T1/2 under setting [1] was 20.3 min and 22.2 min; the T1/2 under setting [2] is 251 min and 454 min and 732 min; the T1/2 under setting [3] worked out at 134 min. In addition, the AUC(0-t) reads like this: (male, Sprague-Dawley, rat, plasma, iv, 1 mg/kg, 2C-B dosed IV 1 mg/kg, male SD rats, individual animals) 65.6 ng·h/mL; (male, Sprague-Dawley, rat, plasma, iv, 1 mg/kg, 2C-B dosed IV 1 mg/kg, male SD rats, mean of 3 animals) 64.5 ng·h/mL; under setting [4], 110 ng·h/mL; (male, Sprague-Dawley, rat, plasma, po, 10 mg/kg, 2C-B dosed oral 10 mg/kg, male SD rats, mean) 43 ng·h/mL. In addition, the half-life runs as follows: (male, Sprague-Dawley, rat, plasma, iv, 1 mg/kg, T1/2, 2C-B dosed IV 1 mg/kg, male SD rats, individual animals) 27.3 min; (male, Sprague-Dawley, rat, plasma, iv, 1 mg/kg, T1/2, 2C-B dosed IV 1 mg/kg, male SD rats, mean of 3 animals) 23.3 min; (male, Sprague-Dawley, rat, plasma, po, 5 mg/kg, T1/2, 2C-B dosed oral 5 mg/kg, male SD rats, mean) 479 min; (male, Sprague-Dawley, rat, plasma, po, 10 mg/kg, T1/2, 2C-B dosed oral 10 mg/kg, male SD rats, individual animals) 99 min; (male, Sprague-Dawley, rat, plasma, po, 10 mg/kg, T1/2, 2C-B dosed oral 10 mg/kg, male SD rats, mean) 116 min. The Tmax reads like this: (male, Sprague-Dawley, rat, plasma, po, 5 mg/kg, 2C-B dosed oral 5 mg/kg, male SD rats, individual animals) 30 min; under setting [4], 30 min; (male, Sprague-Dawley, rat, plasma, po, 10 mg/kg, 2C-B dosed oral 10 mg/kg, male SD rats, Mean* row (median calculated for Tmax)) 30 min; (male, Sprague-Dawley, rat, plasma, po, 10 mg/kg, 2C-B dosed oral 10 mg/kg, male SD rats, individual animals) 60 min.

For `COc1cc(CCN2C(=O)c3c(C)ccc(C)c3C2=O)c(OC)cc1Br` [Example 34, 2-(4-bromo-2,5-dimethoxyphenethyl)-4,7-dimethylisoindoline-1,3-dione], the “Plasma Concentrations of metabolite 2C-B Following Oral Dosing” value (“Plasma Concentrations” below) is “BLQ (BLQ: Below Lower Limit of Quanification (0.5 ng/mL))” (oral dosing of 2C-B prodrug, rat, time 0.500 h, individual animal); “BLQ (BLQ: Below Lower Limit of Quanification (0.5 ng/mL))” (oral dosing of 2C-B prodrug, rat, time 0.500 h, mean); “BLQ (BLQ: Below Lower Limit of Quanification (0.5 ng/mL))” (oral dosing of 2C-B prodrug, rat, time 1.00 h, individual animal); “BLQ (BLQ: Below Lower Limit of Quanification (0.5 ng/mL))” (oral dosing of 2C-B prodrug, rat, time 1.00 h, mean); “BLQ (BLQ: Below Lower Limit of Quanification (0.5 ng/mL))” (oral dosing of 2C-B prodrug, rat, time 2.00 h, individual animal); “BLQ (BLQ: Below Lower Limit of Quanification (0.5 ng/mL))” (oral dosing of 2C-B prodrug, rat, time 2.00 h, mean). In addition, the “Plasma Concentrations” value is given as “BLQ (BLQ: Below Lower Limit of Quanification (0.5 ng/mL))” (oral dosing of 2C-B prodrug, rat, time 4.00 h, individual animal); “BLQ (BLQ: Below Lower Limit of Quanification (0.5 ng/mL))” (oral dosing of 2C-B prodrug, rat, time 4.00 h, mean); “BLQ (BLQ: Below Lower Limit of Quanification (0.5 ng/mL))” (oral dosing of 2C-B prodrug, rat, time 7.00 h, individual animal); “BLQ (BLQ: Below Lower Limit of Quanification (0.5 ng/mL))” (oral dosing of 2C-B prodrug, rat, time 7.00 h, mean); “BLQ (BLQ: Below Lower Limit of Quanification (0.5 ng/mL))” (oral dosing of 2C-B prodrug, rat, time 24.0 h, individual animal); “BLQ (BLQ: Below Lower Limit of Quanification (0.5 ng/mL))” (oral dosing of 2C-B prodrug, rat, time 24.0 h, mean).

On to `COc1cc(CCN2C(=O)C(C)=C(C)C2=O)c(OC)cc1Br` [Example 21-B, 1-(4-bromo-2,5-dimethoxyphenethyl)-3,4-dim ethyl-1H-pyrrole-2,5-dione], for which the “Plasma Concentrations” value (prodrug oral 10 mg/kg, male SD rats, time 0.500 h, individual animals) is reported as “BLQ (BLQ: Below Lower Limit of Quanification (0.5 ng/mL))”; the “Plasma Concentrations” value (prodrug oral 10 mg/kg, male SD rats, time 0.500 h, mean) is reported as “BLQ (BLQ: Below Lower Limit of Quanification (0.5 ng/mL))”; the “Plasma Concentrations” value (prodrug oral 10 mg/kg, male SD rats, time 1.00 h, individual animals) is “BLQ (BLQ: Below Lower Limit of Quanification (0.5 ng/mL))”; the “Plasma Concentrations” value (prodrug oral 10 mg/kg, male SD rats, time 1.00 h, mean) was “BLQ (BLQ: Below Lower Limit of Quanification (0.5 ng/mL))”; the “Plasma Concentrations” value (prodrug oral 10 mg/kg, male SD rats, time 2.00 h, individual animals) is “BLQ (BLQ: Below Lower Limit of Quanification (0.5 ng/mL))”; the “Plasma Concentrations” value (prodrug oral 10 mg/kg, male SD rats, time 2.00 h, mean) was “BLQ (BLQ: Below Lower Limit of Quanification (0.5 ng/mL))”. The “Plasma Concentrations” value reads like this: (prodrug oral 10 mg/kg, male SD rats, time 4.00 h, individual animals) “BLQ (BLQ: Below Lower Limit of Quanification (0.5 ng/mL))”; (prodrug oral 10 mg/kg, male SD rats, time 4.00 h, mean) “BLQ (BLQ: Below Lower Limit of Quanification (0.5 ng/mL))”; (prodrug oral 10 mg/kg, male SD rats, time 7.00 h, individual animals) “BLQ (BLQ: Below Lower Limit of Quanification (0.5 ng/mL))”; (prodrug oral 10 mg/kg, male SD rats, time 7.00 h, mean) “BLQ (BLQ: Below Lower Limit of Quanification (0.5 ng/mL))”; (prodrug oral 10 mg/kg, male SD rats, time 24.0 h, individual animals) “BLQ (BLQ: Below Lower Limit of Quanification (0.5 ng/mL))”; (prodrug oral 10 mg/kg, male SD rats, time 24.0 h, mean) “BLQ (BLQ: Below Lower Limit of Quanification (0.5 ng/mL))”.
